Patent US20110077248A1, “IMIDAZOPYRIDINE AND RELATED ANALOGS AS SIRTUIN MODULATORS” (Sirtris Pharmaceuticals, Inc., priority 2008, published 2011)

Biological target: T1, SIRT1 (Homo sapiens, UniProt Q96EB6)
T1 construct: His-tag (N); made in house; host or cells: E. coli BL21(DE3), T7-promoter vector
T1 sequence (Q96EB6 1-747): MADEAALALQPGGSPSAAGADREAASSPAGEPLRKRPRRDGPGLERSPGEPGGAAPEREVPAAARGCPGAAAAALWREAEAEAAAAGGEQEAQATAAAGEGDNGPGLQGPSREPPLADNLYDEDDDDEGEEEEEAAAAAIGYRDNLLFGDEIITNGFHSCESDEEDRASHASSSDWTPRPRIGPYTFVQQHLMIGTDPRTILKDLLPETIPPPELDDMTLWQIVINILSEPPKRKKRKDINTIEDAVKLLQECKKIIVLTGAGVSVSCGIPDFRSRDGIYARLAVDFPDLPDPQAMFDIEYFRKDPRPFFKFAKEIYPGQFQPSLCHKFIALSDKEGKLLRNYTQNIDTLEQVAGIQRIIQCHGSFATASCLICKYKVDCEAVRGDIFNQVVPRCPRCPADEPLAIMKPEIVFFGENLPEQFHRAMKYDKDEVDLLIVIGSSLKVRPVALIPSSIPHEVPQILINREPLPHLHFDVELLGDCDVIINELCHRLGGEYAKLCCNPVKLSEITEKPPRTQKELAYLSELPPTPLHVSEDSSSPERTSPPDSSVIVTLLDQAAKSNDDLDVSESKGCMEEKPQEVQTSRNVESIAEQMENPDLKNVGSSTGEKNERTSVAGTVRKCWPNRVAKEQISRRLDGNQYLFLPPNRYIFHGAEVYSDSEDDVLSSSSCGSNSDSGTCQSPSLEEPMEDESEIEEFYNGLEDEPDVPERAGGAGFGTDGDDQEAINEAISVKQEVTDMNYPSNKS
Assay: Mass spectrometry based assay for modulators of SIRT1 activity (deacetylation of p53-based acetylated peptide)
Type: biochemical
Details: for EC1.5: concentration of test compound that results in 150% activation of SIRT1, 0.5 μM peptide substrate, 120 μM βNAD+, 10 nM SIRT1, 25 min, 25° C.; for Emax: percent maximum fold activation of SIRT1
Text: A mass spectrometry based assay was used to identify modulators of SIRT1 activity. The mass spectrometry based assay utilizes a peptide having 20 amino acid residues as follows: Ac-EE-K(biotin)-GQSTSSHSK(Ac)NleSTEG-K(5TMRi)-EE-NH2 (SEQ ID NO: 1) wherein K(Ac) is an acetylated lysine residue and Nle is a norleucine. The peptide is labeled with the fluorophore 5TMR (excitation 540 nm/emission 580 nm) at the C-terminus. The sequence of the peptide substrate is based on p53 with several modifications. In addition, the methionine residue naturally present in the sequence was replaced with the norleucine because the methionine may be susceptible to oxidation during synthesis and purification.
The mass spectrometry assay is conducted as follows: 0.5 μM peptide substrate and 120 μM βNAD+ is incubated with 10 nM SIRT1 for 25 minutes at 25° C. in a reaction buffer (50 mM Tris-acetate pH 8, 137 mM NaCl, 2.7 mM KCl, 1 mM MgCl2, 5 mM DTT, 0.05% BSA). Test compounds may be added to the reaction as described above. The SirT1 gene is cloned into a T7-promoter containing vector and transformed into BL21(DE3). After the 25 minute incubation with SIRT1, 10 μL of 10% formic acid is added to stop the reaction. Reactions are sealed and frozen for later mass spec analysis. Determination of the mass of the substrate peptide allows for precise determination of the degree of acetylation (i.e. starting material) as compared to deacetylated peptide (product).
A control for inhibition of sirtuin activity is conducted by adding 1 μL of 500 mM nicotinamide as a negative control at the start of the reaction (e.g., permits determination of maximum sirtuin inhibition). A control for activation of sirtuin activity is conducted using 10 nM of sirtuin protein, with 1 μL of DMSO in place of compound, to determinine the amount of deacetylation of the substrate at a given timepoint within the linear range of the assay. This timepoint is the same as that used for test compounds and, within the linear range, the endpoint represents a change in velocity.
For the above assay, SIRT1 protein was expressed and purified as follows. The SirT1 gene was cloned into a T7-promoter containing vector and transformed into BL21(DE3). The protein was expressed by induction with 1 mM IPTG as an N-terminal His-tag fusion protein at 18° C. overnight and harvested at 30,000×g. Cells were lysed with lysozyme in lysis buffer (50 mM Tris-HCl, 2 mM Tris[2-carboxyethyl]phosphine (TCEP), 10 μM ZnCl2, 200 mM NaCl) and further treated with sonication for 10 min for complete lysis. The protein was purified over a Ni-NTA column (Amersham) and fractions containing pure protein were pooled, concentrated and run over a sizing column (Sephadex S200 26/60 global). The peak containing soluble protein was collected and run on an Ion-exchange column (MonoQ). Gradient elution (200 mM-500 mM NaCl) yielded pure protein. This protein was concentrated and dialyzed against dialysis buffer (20 mM Tris-HCl, 2 mM TCEP) overnight. The protein was aliquoted and frozen at −80° C. until further use.
Sirtuin modulating compounds that activated SIRT1 were identified using the assay described above and are shown below in Table 1. The EC1.5 values represent the concentration of test compounds that result in 150% activation of SIRT1. The EC1.5 values for the activating compounds are represented by A (EC1.5<1.0 uM), B (EC1.5 1-25 uM), C (EC1.5>25 uM). The percent maximum fold activation is represented by A (Fold activation >200%) or B (Fold Activation <200%). “NT” indicates the compound was not tested in a particular assay.

With `O=C(Nc1cccnn1)c1nccn2cc(-c3ccccc3OC(F)(F)F)nc12` [Compound 243] the EC1.5 was “B (EC1.5 1-25 uM)” and the Emax was greater than 200%.

`O=C(Nc1cccc(OCC(O)CO)c1)c1cccn2cc(-c3cccc(OC(F)(F)F)c3)nc12` (stereo not drawn) [Compound 136] was tested, and the EC1.5 was “B (EC1.5 1-25 uM)” and the Emax was greater than 200%.

For `O=C(Nc1cccn2cc(-c3ccccc3)nc12)C1CCNCC1` [Compound 103], the EC1.5 was “C (EC1.5>25 uM)” and the Emax was less than 200%.

`O=C(Nc1nccs1)c1nccn2cc(-c3cccc(OC(F)(F)F)c3)nc12` [Compound 142] was tested, and the EC1.5 was “C (EC1.5>25 uM)” and the Emax was less than 200%.

In the case of `O=C(Nc1ccc(CN2CCOCC2)cc1)c1cccn2cc(-c3ccc(F)cc3C(F)(F)F)nc12` [Compound 147], the EC1.5 is reported as “B (EC1.5 1-25 uM)” and the Emax is reported as greater than 200%.

In the case of `O=C(Nc1nc(CN2CCOCC2)cs1)c1cccn2cc(-c3ccc(C(F)F)cc3)nc12` [Compound 204], the EC1.5 is reported as “B (EC1.5 1-25 uM)” and the Emax is reported as greater than 200%.

With `O=C(Nc1nc(CN2CCOCC2)cs1)c1cccn2cc(-c3cccc(Cl)c3)nc12` [Compound 233] the EC1.5 was “A (EC1.5<1.0 uM)” and the Emax was greater than 200%.

`O=C(Nc1cccn2cc(-c3ccccc3)nc12)c1cnccn1` [Compound 102] was tested, and the EC1.5 was “C (EC1.5>25 uM)” and the Emax was less than 200%.

In the case of `O=C(Nc1nccs1)c1cccn2nc(-c3ccc(N4CCOCC4)cc3C(F)(F)F)nc12` [Compound 219, 2-(4-morpholino-2-(trifluoromethyl)phenyl)-N-(thiazol-2-yl)-[1,2,4]triazolo[1,5-a]pyridine-8-carboxamide], the EC1.5 is reported as “A (EC1.5<1.0 uM)” and the Emax is reported as greater than 200%.

With `O=C(Nc1nccs1)c1cccn2cc(-c3cccc(CN4CCCC4)c3)nc12` [Compound 256] the EC1.5 was “B (EC1.5 1-25 uM)” and the Emax was greater than 200%.

With `Cc1ccc(-c2nc3c(C(=O)Nc4cccc(CN5CCOCC5)n4)cccn3n2)cn1` [Compound 213] the EC1.5 was “B (EC1.5 1-25 uM)” and the Emax was greater than 200%.

In the case of `O=C(Nc1ccccn1)c1cccn2cc(-c3ccc(CN4CCOCC4)cc3)nc12` [Compound 251], the EC1.5 is reported as “B (EC1.5 1-25 uM)” and the Emax is reported as greater than 200%.

For `O=C(Nc1cccnn1)c1nccn2cc(-c3ccc(F)cc3C(F)(F)F)nc12` [Compound 191], the EC1.5 was “B (EC1.5 1-25 uM)” and the Emax was greater than 200%.

With `O=C(Nc1nc(CN2CCOCC2)cs1)c1cccn2nc(-c3cccc(C(F)(F)F)c3)nc12` [Compound 177, N-(4-(morpholinomethyl)thiazol-2-yl)-2-(3-(trifluoromethyl)phenyl)-[1,2,4]triazolo[1,5-a]pyridine-8-carboxamide] the EC1.5 was “B (EC1.5 1-25 uM)” and the Emax was greater than 200%.

With `O=C(Nc1cccn2cc(-c3cccc(C(F)(F)F)c3)nc12)c1ccncc1` [Compound 119] the EC1.5 was “C (EC1.5>25 uM)” and the Emax was less than 200%.

For `O=C(Nc1ccccn1)c1cccn2nc(-c3ccccc3OC(F)(F)F)nc12` [Compound 228], the EC1.5 was “B (EC1.5 1-25 uM)” and the Emax was greater than 200%.

In the case of `O=C(Nc1ccccn1)c1cccn2nc(-c3cc(Cl)ccc3C(F)(F)F)nc12` [Compound 224], the EC1.5 is reported as “B (EC1.5 1-25 uM)” and the Emax is reported as less than 200%.

For `O=C(Nc1ncc(CN2CCOCC2)s1)c1cccn2cc(-c3cccc(C(F)(F)F)c3)nc12` [Compound 134, N-(5-(morpholinomethyl)thiazol-2-yl)-2-(3-(trifluoromethyl)phenyl)imidazo[1,2-a]pyridine-8-carboxamide], the EC1.5 was “A (EC1.5<1.0 uM)” and the Emax was greater than 200%.

For `O=C(Nc1nccs1)c1cccn2nc(-c3ccccc3OC(F)(F)F)nc12` [Compound 227], the EC1.5 was “B (EC1.5 1-25 uM)” and the Emax was greater than 200%.

With `O=C(Nc1ccccn1)c1cccn2cc(-c3ccccc3C(F)(F)F)nc12` [Compound 149] the EC1.5 was “B (EC1.5 1-25 uM)” and the Emax was greater than 200%.

In the case of `Cc1cc(-c2nc3c(C(=O)Nc4cccc(CN5CCOCC5)n4)cccn3n2)ccn1` [Compound 217], the EC1.5 is reported as “B (EC1.5 1-25 uM)” and the Emax is reported as greater than 200%.

With `O=C(Nc1nccs1)c1nccn2cc(-c3ccc(N4CCCC4)cc3)nc12` [Compound 168] the EC1.5 was “C (EC1.5>25 uM)” and the Emax was less than 200%.

For `O=C(Nc1cccc(CN2CCOCC2)n1)c1cccn2cc(-c3ccc(F)c(F)c3)nc12` [Compound 195], the EC1.5 was “B (EC1.5 1-25 uM)” and the Emax was greater than 200%.

`O=C(Nc1cccc(CN2CCOCC2)n1)c1nccn2cc(-c3ccc(F)cc3C(F)(F)F)nc12` [Compound 261] was tested, and the EC1.5 was “A (EC1.5<1.0 uM)” and the Emax was greater than 200%.

`O=C(Nc1ccccn1)c1cccn2cc(-c3ccc(F)cc3)nc12` [Compound 157] was tested, and the EC1.5 was “B (EC1.5 1-25 uM)” and the Emax was less than 200%.

For `O=C(Nc1ncc(CN2CCCC2)s1)c1cccn2cc(-c3ccc(F)cc3C(F)(F)F)nc12` [Compound 146], the EC1.5 was “B (EC1.5 1-25 uM)” and the Emax was greater than 200%.

With `O=C(Nc1ccccn1)c1cccn2nc(-c3ccccc3OC(F)F)nc12` [Compound 226] the EC1.5 was “B (EC1.5 1-25 uM)” and the Emax was greater than 200%.

With `O=C(Nc1nccs1)c1cccn2nc(-c3ccc(F)cc3C(F)F)nc12` [Compound 263] the EC1.5 was “C (EC1.5>25 uM)” and the Emax was less than 200%.

`O=C(Nc1ccccc1)c1cccn2cc(-c3ccccc3)nc12` [Compound 108] was tested, and the EC1.5 was “C (EC1.5>25 uM)” and the Emax was less than 200%.

In the case of `O=C(Nc1cccc(CN2CCOCC2)n1)c1cccn2cc(-c3cccc(F)c3F)nc12` [Compound 232], the EC1.5 is reported as “B (EC1.5 1-25 uM)” and the Emax is reported as less than 200%.

`O=C(Nc1cccc(CN2CCOCC2)n1)c1cccn2cc(-c3ccc(C(F)F)cc3)nc12` [Compound 205] was tested, and the EC1.5 was “A (EC1.5<1.0 uM)” and the Emax was greater than 200%.

With `O=C(Nc1ccccn1)c1cccn2nc(-c3ccc(OCCN4CCOCC4)cc3C(F)F)nc12` [Compound 248] the EC1.5 was “B (EC1.5 1-25 uM)” and the Emax was greater than 200%.

With `O=C(Nc1nccs1)c1cccn2cc(-c3cccc(C(F)(F)F)c3)nc12` [Compound 112] the EC1.5 was “C (EC1.5>25 uM)” and the Emax was less than 200%.

For `O=C(Nc1cnccn1)c1nccn2cc(-c3ccccc3C(F)(F)F)nc12` [Compound 176], the EC1.5 was “B (EC1.5 1-25 uM)” and the Emax was greater than 200%.

With `O=C(Nc1ccccn1)c1nccn2cc(-c3ccccc3OC(F)(F)F)nc12` [Compound 186] the EC1.5 was “B (EC1.5 1-25 uM)” and the Emax was greater than 200%.

`Cc1ccc(-c2nc3c(C(=O)Nc4nc(CN5CCOCC5)cs4)cccn3n2)cn1` [Compound 212] was tested, and the EC1.5 was “B (EC1.5 1-25 uM)” and the Emax was less than 200%.
